These results are taken from patent US9469645B2, “Compounds and compositions for the treatment of parasitic diseases” (Novartis AG, priority 2009, dated 2016).

One assay concerns 3D7 P. falciparum strain. The experiment in a line: parasite proliferation assay in infected red blood cells (SYBR Green I). It is filed as cell-based, Plasmodium falciparum. Conditions: Plasmodium falciparum, 3D7, Erythrocyte, 3D7 strain; read-out: EC50 3D7 strain. Summed up:
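P. falciparum 3D7 grown in O+ human erythrocytes to 3–8% parasitemia and exposed to compounds. Proliferation read as the increase in parasite DNA. Detection used SYBR Green I in saponin/triton-X/EDTA lysis buffer, with overnight lysis at room temperature.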

The subject of a further assay is W2 strain. The experiment in a line: parasite proliferation assay in infected red blood cells (SYBR Green I), W2 strain. It is filed as cell-based. Conditions: Erythrocyte. From the text:
Compounds of the invention can be assayed to measure their capacity to inhibit proliferation of parasitemia in infected red blood cells. The proliferation is quantified by the addition of SYBR Green I (INVITROGEN)® dye which has a high affinity for double stranded DNA.

For orientation: EC50 means the concentration needed to bring the measured effect to its halfway point. In the case of `Cc1ccc(Nc2c(-c3ccc(F)cc3)nc3n2CCN(C(=O)C(O)c2ccc(C(F)(F)F)cc2)C3)cc1` (stereo not shown) [Compound 127], the values for the EC50 in the assay on 3D7 P. falciparum strain and with W2 strain were 60 nM and 51 nM, respectively.
Take `COC(C(=O)N1CCn2c(nc(-c3ccc(F)cc3)c2Nc2ccc(C)cc2)C1)(c1ccccc1)C(F)(F)F` (stereo not shown) [Compound 128]: the EC50 in the assay on 3D7 P. falciparum strain was found to be 1180 nM; with W2 strain, 743 nM.
In the case of `Cc1ccc(Nc2c(-c3ccc(F)cc3)nc3n2CCN(C(=O)C(O)c2cccc(O)c2)C3)cc1` (stereo not shown) [Compound 129], the 50% effective concentration (EC50) with 3D7 P. falciparum strain is 10 nM; with W2 strain, 6 nM.
`Cc1ccc(Nc2c(-c3ccc(F)cc3)nc3n2CCN(C(=O)C(O)c2ccccc2Cl)C3)cc1` (stereo not shown) [Compound 131]: the EC50 in the assay on 3D7 P. falciparum strain was found to be 40 nM; with W2 strain, 30 nM.
Consider `Cc1ccc(Nc2c(-c3ccc(F)cc3)nc3n2CCN(C(=O)C(O)c2ccc(Br)cc2F)C3)cc1` (stereo not shown) [Compound 132], for which the values for the EC50 in the assay on 3D7 P. falciparum strain and in the assay on W2 strain were 100 nM and 82 nM, respectively.
Taken in the same sequence, the figures for `Cc1ccc(Nc2c(-c3ccc(F)cc3)nc3n2CCN(C(=O)C(O)c2ccc(Cl)cc2)C3)cc1` (stereo not shown) [Compound 133] were 50 nM and 39 nM.
Take `Cc1ccc(Nc2c(-c3ccc(F)cc3)nc3n2CCN(C(=O)[C@@H](O)CC(C)C)C3)cc1` [Compound 134]: the EC50 in the assay with 3D7 P. falciparum strain came out at 10 nM; in the assay on W2 strain it was 7 nM.
As for `Cc1ccc(Nc2c(-c3ccc(F)cc3)nc3n2CCN(C(=O)C[C@@H](O)c2ccccc2)C3)cc1` [Compound 135], the EC50 in the assay on 3D7 P. falciparum strain came out at 50 nM; with W2 strain it was 33 nM.
The matching figures for `Cc1ccc(Nc2c(-c3ccc(F)cc3)nc3n2CCN(C(=O)[C@H](O)c2ccccc2)C3)cc1` [Compound 137]: 10 nM and 12 nM.
As for `Cc1ccc(Nc2c(-c3ccc(F)cc3)nc3n2CCN(C(=O)[C@@H](O)c2ccccc2)C3)cc1` [Compound 138], the EC50 with 3D7 P. falciparum strain came out at 10 nM; in the assay on W2 strain, 15 nM.
As to `Cc1ccc(Nc2c(-c3ccc(F)cc3)nc3n2CCN(C(=O)C2(N)CCC2)C3)cc1` [Compound 139], the EC50 turned out to be 160 nM in the assay on 3D7 P. falciparum strain and 165 nM in the assay on W2 strain.
On to `Cc1ccc(Nc2c(-c3ccc(F)cc3)nc3n2CCN(C(=O)C2(N)CCCC2)C3)cc1` [Compound 140], for which the EC50 is 90 nM in the assay with 3D7 P. falciparum strain and 128 nM with W2 strain.
In the case of `Cc1ccc(Nc2c(-c3ccc(F)cc3)nc3n2CCN(C(=O)C2(N)CCCCC2)C3)cc1` [Compound 141], the EC50 in the assay with 3D7 P. falciparum strain was determined as 70 nM; in the assay with W2 strain, 90 nM.
Turning to `Cc1ccc(Nc2c(-c3ccc(F)cc3)nc3n2CCN(C(=O)C(N)CC(F)(F)F)C3)cc1` (stereo not shown) [Compound 142], the EC50 in the assay with 3D7 P. falciparum strain amounted to 80 nM; in the assay with W2 strain it was 120 nM.
The matching figures for `CCC(C)(O)CC(=O)N1CCn2c(nc(-c3ccc(F)cc3)c2Nc2ccc(C)cc2)C1` (stereo not shown) [Compound 143]: 150 nM and 219 nM.
As for `Cc1ccc(Nc2c(-c3ccc(F)cc3)nc3n2CCN(C(=O)C(N)C(F)(F)F)C3)cc1` (stereo not shown) [Compound 144], the EC50 in the assay with 3D7 P. falciparum strain turned out to be 50 nM; with W2 strain it was 73 nM.
Taken in the same sequence, the figures for `Cc1ccc(Nc2c(-c3ccc(F)cc3)nc3n2CCN(C(=O)[C@@H](O)CC2CCCCC2)C3)cc1` [Compound 145] were 90 nM and 68 nM.
Take `Cc1ccc(Nc2c(-c3ccc(F)cc3)nc3n2CCN(C(=O)CNCc2ccccc2)C3)cc1` [Compound 146]: the EC50 came to 20 nM in the assay with 3D7 P. falciparum strain and 14 nM with W2 strain.
The matching figures for `CCCN(CCC)CC(=O)N1CCn2c(nc(-c3ccc(F)cc3)c2Nc2ccc(C)cc2)C1` [Compound 147]: 2430 nM and 1520 nM.
The matching figures for `CCCN(CCC)[C@@H](C)C(=O)N1CCn2c(nc(-c3ccc(F)cc3)c2Nc2ccc(C)cc2)C1` [Compound 148]: 4060 nM and 1430 nM.
The matching figures for `CN[C@@H](Cc1ccccc1)C(=O)N1CCn2c(nc(-c3ccc(F)cc3)c2Nc2ccc(C)cc2)C1` [Compound 149]: 20 nM and 11 nM.
With `Cc1ccc(Nc2c(-c3ccc(F)cc3)nc3n2CCN(C(=O)[C@H](CCC(=O)OCc2ccccc2)NC(=O)OC(C)(C)C)C3)cc1` [Compound 150], the EC50 was 960 nM in the assay on 3D7 P. falciparum strain and 673 nM with W2 strain.
Take `Cc1ccc(Nc2c(-c3ccc(F)cc3)nc3n2CCN(C(=O)[C@H](CC(=O)OCc2ccccc2)NC(=O)OC(C)(C)C)C3)cc1` [Compound 151]: the EC50 is 820 nM in the assay with 3D7 P. falciparum strain and 386 nM with W2 strain.
Taken in the same sequence, the figures for `Cc1ccc(Nc2c(-c3ccc(F)cc3)nc3n2CCN(C(=O)[C@H](CCCCNC(=O)OC(C)(C)C)NC(=O)OCc2ccccc2)C3)cc1` [Compound 152] were 3870 nM and 873 nM.
Taken in the same sequence, the figures for `Cc1ccc(Nc2c(-c3ccc(F)cc3)nc3n2CCN(C(=O)CNC2CC2)C3)cc1` [Compound 153] were 60 nM and 32 nM.
Turning to `CC(=O)NCCCCNCC(=O)N1CCn2c(nc(-c3ccc(F)cc3)c2Nc2ccc(C)cc2)C1` [Compound 154], the values for the EC50 in the assay on 3D7 P. falciparum strain and in the assay on W2 strain were 4270 nM and 3410 nM, respectively.
Take `Cc1ccc(Nc2c(-c3ccc(F)cc3)nc3n2CCN(CCN2CCn4c(nc(-c5ccc(F)cc5)c4Nc4ccc(C)cc4)C2)C3)cc1` [Compound 155]: the EC50 in the assay on 3D7 P. falciparum strain stood at 2140 nM; with W2 strain it was 491 nM.
For `Cc1ccc(Nc2c(-c3ccc(F)cc3)nc3n2CCN(C(=O)[C@@H](N)CCCCN)C3)cc1` [Compound 156], the EC50 amounted to 1830 nM with 3D7 P. falciparum strain and 458 nM in the assay with W2 strain.
On to `Cc1ccc(Nc2c(-c3ccc(F)cc3)nc3n2CCN(C(=O)[C@@H](N)Cc2ccc(N)cc2)C3)cc1` [Compound 157], for which the EC50 in the assay on 3D7 P. falciparum strain turned out to be 100 nM; in the assay with W2 strain, 97 nM.
Turning to `CCCC(=O)NCCCC[C@H](N)C(=O)N1CCn2c(nc(-c3ccc(F)cc3)c2Nc2ccc(C)cc2)C1` [Compound 158], the results for the EC50 with 3D7 P. falciparum strain and in the assay with W2 strain were 7540 nM and 4760 nM, respectively.
With `Cc1ccc(Nc2c(-c3ccc(F)cc3)nc3n2CCN(C(=O)[C@@H](N)CCCCNC(=O)CCOCCOCCOCCOCCNC(=O)CCCCC2SCC4NC(=O)NC42)C3)cc1` (stereo partly shown) [Compound 159], the EC50 with 3D7 P. falciparum strain is 5700 nM; in the assay with W2 strain, 2910 nM.
Taken in the same sequence, the figures for `CC(=O)Nc1ccc(C[C@H](N)C(=O)N2CCn3c(nc(-c4ccc(F)cc4)c3Nc3ccc(C)cc3)C2)cc1` [Compound 160] were 4320 nM and 2390 nM.
Turning to `Cc1ccc(Nc2c(-c3ccc(F)cc3)nc3n2CCN(C(=O)CN(CCO)CCO)C3)cc1` [Compound 161], the figures for the EC50 in the assay on 3D7 P. falciparum strain and in the assay with W2 strain were 540 nM and 510 nM, respectively.
Consider `Cc1ccc(Nc2c(-c3ccc(F)cc3)nc3n2CCN(C(=O)[C@@H]2CC(=O)N2)C3)cc1` [Compound 162], for which the EC50 in the assay on 3D7 P. falciparum strain came to 1780 nM; in the assay on W2 strain, 1380 nM.
Taken in the same sequence, the figures for `Cc1ccc(Nc2c(-c3ccc(F)cc3)nc3n2CCN(C(=O)[C@@H](N)CO)C3)cc1` [Compound 163] were 20 nM and 26 nM.
The matching figures for `Cc1ccc(Nc2c(-c3ccc(F)cc3)nc3n2CCN(C(=O)[C@H](CO)NC(=O)C(F)(F)F)C3)cc1` [Compound 164]: more than 9810 nM and 3760 nM.
`Cc1ccc(Nc2c(-c3ccc(F)cc3)nc3n2CCN(C(=O)c2cc(=O)[nH]c(=O)[nH]2)C3)cc1` [Compound 165]: the EC50 in the assay with 3D7 P. falciparum strain is more than 10200 nM; in the assay with W2 strain, 4640 nM.
The matching figures for `Cc1ccc(Nc2c(-c3ccc(F)cc3)nc3n2CCN(C(=O)CNC(N)=O)C3)cc1` [Compound 166]: 2870 nM and 2230 nM.
On to `Cc1ccc(Nc2c(-c3ccc(F)cc3)nc3n2CCN(C(=O)CNC(=N)N)C3)cc1` [Compound 167], for which the EC50 is 180 nM in the assay on 3D7 P. falciparum strain and 145 nM in the assay with W2 strain.
The matching figures for `Cc1ccc(Nc2c(-c3ccc(F)cc3)nc3n2CCN(C(=O)CNc2ccccc2)C3)cc1` [Compound 168]: 10 nM and 11 nM.
Regarding `Cc1ccc(Nc2c(-c3ccc(F)cc3)nc3n2CCN(C(=O)[C@@H](N)C(C)(C)C)C3)cc1` [Compound 170], the results for the EC50 in the assay with 3D7 P. falciparum strain and in the assay with W2 strain were 90 nM and 54 nM, respectively.
With `Cc1ccc(Nc2c(-c3ccc(F)cc3)nc3n2CCN(C(=O)C[C@@H](N)Cc2ccc(Br)cc2)C3)cc1` [Compound 171], the figures for the EC50 in the assay on 3D7 P. falciparum strain and in the assay on W2 strain were 170 nM and 214 nM, respectively.
The matching figures for `Cc1ccc(Nc2c(-c3ccc(F)cc3)nc3n2CCN(C(=O)C[C@@H](N)Cc2cc(F)c(F)cc2F)C3)cc1` [Compound 172]: 100 nM and 88 nM.
Taken in the same sequence, the figures for `Cc1ccc(Nc2c(-c3ccc(F)cc3)nc3n2CCN(C(=O)C(C)c2ccc(Cl)cc2)C3)cc1` (stereo not shown) [Compound 173] were 140 nM and 133 nM.
On to `Cc1ccc(Nc2c(-c3ccc(F)cc3)nc3n2CCN(C(=O)C(C)(C)c2ccc(Cl)cc2)C3)cc1` [Compound 174], for which the EC50 is 6060 nM with 3D7 P. falciparum strain and 1480 nM in the assay with W2 strain.
The matching figures for `Cc1ccc(Nc2c(-c3ccc(F)cc3)nc3n2CCN(C(=O)[C@@H](C)c2ccccc2)C3)cc1` [Compound 175]: 80 nM and 105 nM.
The matching figures for `Cc1ccc(Nc2c(-c3ccc(F)cc3)nc3n2CCN(C(=O)[C@@H]2Cc4[nH]cnc4CN2)C3)cc1` [Compound 176]: 2750 nM and 1790 nM.
Turning to `Cc1ccc(Nc2c(-c3ccc(F)cc3)nc3n2CCN(C(=O)[C@H](Cc2ccccc2)N(C)C)C3)cc1` [Compound 177], the EC50 with 3D7 P. falciparum strain and in the assay on W2 strain was 430 nM throughout.
Take `Cc1ccc(Nc2c(-c3ccc(F)cc3)nc3n2CCN(C(=O)CN2CCC(CCN)CC2)C3)cc1` [Compound 178]: the EC50 in the assay with 3D7 P. falciparum strain amounted to 3050 nM; in the assay with W2 strain, 3320 nM.
Taken in the same sequence, the figures for `Cc1ccc(Nc2c(-c3ccc(F)cc3)nc3n2CCN(Cc2ccc(S(C)(=O)=O)cc2)C3)cc1` [Compound 179] were 4790 nM and 1070 nM.
